Laboratory results: US9079970B2, “Methods and compositions for specific modulation of MCL-1” (Dana Farber Cancer Institute, Inc., priority 2008, dated 2015)
“Also recorded” adds a separate entry of the source. Where a SMILES comes first, the peptide text is derived from it. Bridges are numbered along the chain shown (N, C = ends). [ ]: non-standard residue; d: D form. The star is where a group is joined. S5 = C=CCCC[C@](C)(N)C(=O)O; Nle = CCCC[C@H](N)C(=O)O; Cbz = O=C(OCc1ccccc1)*; CH2F = FC*

How the values were obtained:
[1] = biological target: recombinant BCL-XLΔC (Homo sapiens, UniProt Q07817); test: Fluorescence polarization direct binding of FITC-SAHBs to BCL-XLΔC; details: FPA
Chain of recombinant BCL-XLΔC (Q07817 1-209, stated change not applied): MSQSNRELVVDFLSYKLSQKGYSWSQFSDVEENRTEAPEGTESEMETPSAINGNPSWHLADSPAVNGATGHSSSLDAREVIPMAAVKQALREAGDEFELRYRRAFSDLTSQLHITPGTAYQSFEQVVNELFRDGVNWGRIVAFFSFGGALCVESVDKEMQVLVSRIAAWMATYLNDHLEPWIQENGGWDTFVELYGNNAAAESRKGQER
Description: (§1) Binding assays were performed as previously described (Pitter et al., Methods Enzymol 446, 387 (2008). Briefly, FITC-SAHB (50 nM) was added to serial dilutions of FPLC-purified recombinant protein in binding buffer (50 mM Tris, 100 mM NaCl, pH 8.0). For competition assays, serial dilutions of acetylated MCL-1 SAHBs were mixed with FITC-BAK SAHB (25 nM), followed by addition of MCL-1ΔNΔC (100 nM) diluted in binding buffer (50 mM Tris, 100 mM NaCl, pH 8.0). Multiwell plates were incubated in the dark at room temperature until equilibrium was reached and fluorescence polarization (mP units) was measured by microplate reader (SpectraMax, Molecular Devices). For direct binding experiments, dissociation constants (KD) were calculated by nonlinear regression analysis of dose-response curves using Prism software (Graphpad). For competition experiments, Ki values were determined by nonlinear regression analysis of dose-response curves using a one-site competition model.
(§2) Recombinant carboxy-terminal deleted anti-apoptotic proteins were expressed using the pGEX-4T vector, and purified as described for rMCL-1. The purified proteins were incubated with FITC-SAHBs, and binding affinities were analyzed by fluorescence polarization assay as described above. […] Optionally, design and optimization of tailored SAHB compounds for anti-apoptotic targeting also employed computational modeling.

[2] = test system: MCL-1ΔNΔC, BCL-2ΔC, BCL-XLΔC, BCL-wΔC and BFL-1/A1ΔC; test: FPA selectivity across panel of anti-apoptotic proteins; type: binding; details: FPA against anti-apoptotic panel
Description: as §1
as §2, with “Compounds that bound MCL-1 with high affinity were analyzed for MCL-1 selectivity by measuring SAHB affinities for recombinant BCL-XLΔC, BCL-WΔC and BFL-1/A1ΔC (FIG. 8B). Recombinant” for “Recombinant”
After the experiments set forth above, further members of the library of stabilized alpha-helices of BCL-2 domains (SAHBs) modeled after the BH3 domains of BCL-2 family proteins were generated in order to identify potent and selective inhibitors of MCL-1. The native alpha-helical structure of BH3 domains was reinforced by incorporating non-natural amino acids containing olefin tethers at the (i, i+4) positions of the non-interacting face, followed by ruthenium catalyzed olefin metathesis to yield a panel of stapled BH3 domains (FIG. 7). Fluorescence polarization assays (FPA) were performed to measure the binding affinity of fluorescently labeled SAHBs for recombinant human MCL-1ΔNΔC (amino acids 172-320), a deletion construct that contains the BH3-binding pocket and affords enhanced expression, purity, and stability. […] To identify MCL-1-selective SAHBs, we first screened for recombinant BCL-XLΔC binding, which eliminated PUMA, BID, BIM, BOK, BAX, and BAK SAHBs and then for recombinant BFL1/A1ΔC binding, which eliminated NOXA SAHB.

[3] = test system: Jurkat T-cell leukemia cells; test: Cell viability by MTT assay, Jurkat; type: cell-based
Description: (§3) For viability testing, OPM2 and Jurkat cells (4×10^4) were treated with the indicated agents in Opti-MEM media at 37° C. in a final volume of 100 μL. Cell viability was measured at 24 hours by MTT assay, for which cells were incubated with 20 μL thiazolyl blue tetrazolium bromide (5 mg/mL in DPBS) at 37° C. for 4 hours, the precipitate solubilized with 0.1 N HCl isopropanol (100 μL), and absorbance measured at 570 nm and 650 nm.

[4] = test system: OPM2 multiple myeloma cells; test: Cell viability by MTT assay, OPM2; type: cell-based; details: MTT at 24 hours
Description: as §3, with “OPM2 multiple myeloma cells and Jurkat T-cell leukemia were passaged and maintained in RPMI 1640 medium (Invitrogen) supplemented with 10% fetal bovine serum, 100 U/mL penicillin, 100 μg/mL streptomycin, 2 mM L-glutamine, 50 mM HEPES and 50 μM β-mercaptoethanol. For” for “For”

| Molecule | BCL-XL binding [1] | binding selectivity among anti-apoptotic proteins [2] | also measured |
| --- | --- | --- | --- |
| CC[C@H](C)[C@@H]1NC(=O)[C@@](C)(NC(=O)[C@H](CCCCN)NC(=O)[C@H](CC(C)C)NC(=O)[C@H](CO)NC(=O)[C@H](CCC(=O)O)NC(=O)[C@H](CO)NC(=O)[C@H](CC(C)C)NC(=O)[C@H](CCCCN)NC(=O)[C@H](CCCCN)NC(=O)[C@@H](NC(=O)[C@H](CO)NC(=O)[C@H](C)N)[C@@H](C)O)CCCC=CCCC[C@@](C)(C(=O)N[C@@H](CC(C)C)C(=O)N[C@@H](CC(=O)O)C(=O)N[C@@H](CO)C(=O)N[C@@H](CC(N)=O)C(N)=O)NC(=O)[C@H](CC(=O)O)NC(=O)CNC1=O [BAX SAHB] (H-ASTKKLSESLK[S5]IGD[S5]LDSN-NH2; staple 12-16; C-terminus assumed) | eliminated | – | – |
| CCCC[C@H](NC(=O)[C@H](CCC(=O)O)NC(=O)[C@H](CC(C)C)NC(=O)[C@]1(C)CCCC=CCCC[C@](C)(NC(=O)[C@H](CC(C)C)NC(=O)[C@H](CC(C)C)NC(=O)[C@@H](NC(=O)[C@H](C)NC(=O)[C@H](CO)NC(=O)[C@@H](NC(=O)[C@H](CCC(=O)O)NC(=O)[C@H](C)NC(=O)[C@H](CC(C)C)NC(=O)[C@@H](N)CCCNC(=N)N)C(C)C)C(C)C)C(=O)N[C@@H](CC(C)C)C(=O)NCC(=O)N[C@@H](CC(=O)O)C(=O)N1)C(=O)N[C@H](C(=O)N[C@@H](CCCNC(=N)N)C(N)=O)[C@@H](C)CC [BOK SAHB] (H-RLAEVSAVLL[S5]LGD[S5]LE[Nle]IR-NH2; staple 11-15; C-terminus assumed) | eliminated | significant preference for MCL-1 over the other anti-apoptotics | – |
| CC[C@H](C)[C@@H]1NC(=O)[C@@](C)(NC(=O)[C@H](C)NC(=O)[C@H](CC(C)C)NC(=O)[C@H](CCC(N)=O)NC(=O)[C@H](CCCNC(=N)N)NC(=O)CNC(=O)[C@@H](NC(=O)[C@@H](N)CCC(N)=O)C(C)C)CCCC=CCCC[C@@](C)(C(=O)N[C@H](C(=O)N[C@@H](CC(N)=O)C(=O)N[C@@H](CCCNC(=N)N)C(=O)N[C@@H](CCCNC(=N)N)C(=O)N[C@@H](Cc2ccc(O)cc2)C(=O)N[C@@H](CC(=O)O)C(N)=O)[C@@H](C)CC)NC(=O)[C@H](CC(=O)O)NC(=O)CNC1=O [BAK SAHB] (H-QVGRQLA[S5]IGD[S5]INRRYD-NH2; staple 8-12; C-terminus assumed) | eliminated | high affinity pan-anti-apoptotic binders | – |
| CCCC[C@H](NC(=O)[C@]1(C)CCCC=CCCC[C@](C)(NC(=O)[C@H](C)NC(=O)[C@H](CC(C)C)NC(=O)[C@H](Cc2c[nH]cn2)NC(=O)[C@H](CCCNC(=N)N)NC(=O)[C@H](C)NC(=O)[C@@H](NC(=O)[C@H](CC(N)=O)NC(=O)[C@H](CCCNC(=N)N)NC(=O)[C@@H](NC(=O)[C@@H](NC(=O)[C@@H](N)CC(=O)O)[C@@H](C)CC)[C@@H](C)CC)[C@@H](C)CC)C(=O)N[C@@H](C(C)C)C(=O)NCC(=O)N[C@@H](CC(=O)O)C(=O)N1)C(=O)N[C@@H](CC(=O)O)C(=O)N[C@@H](CCCNC(=N)N)C(=O)N[C@@H](CO)C(=O)N[C@H](C(=O)N[C@@H](CCCNC(=N)N)C(=O)N[C@@H](CCCNC(=N)N)C(N)=O)[C@@H](C)CC [BID SAHB] (H-DIIRNIARHLA[S5]VGD[S5][Nle]DRSIRR-NH2; staple 12-16; C-terminus assumed) | eliminated | – | – |
| CC[C@H](C)[C@H](N)C(=O)N[C@@H](Cc1c[nH]c2ccccc12)C(=O)N[C@H](C(=O)N[C@@H](C)C(=O)N[C@@H](CCC(N)=O)C(=O)N[C@@H](CCC(=O)O)C(=O)N[C@@H](CC(C)C)C(=O)N[C@@H](CCCNC(=N)N)C(=O)N[C@@]1(C)CCCC=CCCC[C@@](C)(C(=O)N[C@@H](Cc2ccccc2)C(=O)N[C@@H](CC(N)=O)C(=O)N[C@@H](C)C(=O)N[C@@H](Cc2ccc(O)cc2)C(=O)N[C@@H](Cc2ccc(O)cc2)C(=O)N[C@@H](C)C(=O)N[C@@H](CCCNC(=N)N)C(=O)N[C@@H](CCCNC(=N)N)C(N)=O)NC(=O)[C@H](CC(=O)O)NC(=O)CNC(=O)[C@H]([C@@H](C)CC)NC1=O)[C@@H](C)CC [BIM SAHB] | eliminated | pan-anti-apoptotic binder | – |
| CC(NC(=O)C(NC(=O)OCc1ccccc1)C(C)C)C(=O)NC(CC(=O)O)C(=O)CF (stereo not drawn) [z-VAD, reference compound] (Cbz-Val-Ala-Asp-CH2F; configuration not given here) | – | – | effect of pan-caspase inhibitor on MCL-1 SAHBD-induced sensitization ([3]; z-VAD 50 μM with MCL-1 SAHBD plus TRAIL/FasL, Jurkat and OPM2 cells): completely abrogated the negative effects on cell viability |
| LEVESXTQLXRFGDKLNFRQKL [NOXA SAHBB] | – | binds MCL-1ΔNΔC exclusively; also recorded: potent and exclusive MCL-1ΔNΔC binding activity | sensitization of Jurkat cells to FasL ([3]; combined with low dose FasL, MTT at 24 hours): behaved identically to MCL-1 SAHBD; also recorded: sensitized the apoptotic response of Jurkat cells to TRAIL and FasL; sensitization of Jurkat cells to TRAIL ([3]; combined with low dose TRAIL, MTT at 24 hours): behaved identically to MCL-1 SAHBD; also recorded: sensitized the apoptotic response of Jurkat cells to TRAIL and FasL |
| CCCC[C@@H]1NC(=O)[C@@](C)(NC(=O)[C@H](CCCNC(=N)N)NC(=O)[C@H](CC(C)C)NC(=O)[C@H](CCC(N)=O)NC(=O)[C@H](C)NC(=O)CNC(=O)[C@@H](NC(=O)[C@H](CCC(=O)O)NC(=O)[C@H](CCCNC(=N)N)NC(=O)[C@H](C)NC(=O)[C@H](Cc2c[nH]c3ccccc23)NC(=O)[C@@H](N)CCC(N)=O)[C@@H](C)CC)CCCC=CCCC[C@@](C)(C(=O)N[C@@H](CC(C)C)C(=O)N[C@@H](CC(N)=O)C(=O)N[C@@H](C)C(=O)N[C@@H](CCC(N)=O)C(=O)N[C@@H](Cc2ccc(O)cc2)C(N)=O)NC(=O)[C@H](CC(=O)O)NC(=O)[C@H](C)NC1=O [PUMA SAHB] (H-QWAREIGAQLR[S5][Nle]AD[S5]LNAQY-NH2; staple 12-16; C-terminus assumed) | eliminated | – | – |
| TRAIL: death receptor agonist, extrinsic pathway activator (protein, UniProt P50591 1-281, looked up) Tumor necrosis factor ligand …: MAMMEVQGGPSLGQTCVLIVIFTVLLQSLCVAVTYVYFTNELKQMQDKYSKSGIACFLKEDDSYWDPNDEESMNSPCWQVKWQLRQLVRKMILRTSEETISTVQEKQQNISPLVRERGPQRVAAHITGTRGRSNTLSSPNSKNEKALGRKINSWESSRSGHSFLSNLHLRNGELVIHEKGFYYIYSQTYFRFQEEIKENTKNDKQMVQYIYKYTSYPDPILLMKSARNSCWSKDAEYGLYSIYQGGIFELKENDRIFVSVTNEHLIDMDHEASFFGAFLVG | – | – | Jurkat cell viability, single agent ([3]; MTT at 24 hours): dose-responsive cytotoxicity; also recorded: induced apoptosis; OPM2 cell viability, single agent [4]: sensitive to TRAIL; also recorded: induced apoptosis |
| FasL: death receptor agonist, extrinsic pathway activator (protein, UniProt P48023 130-281, looked up) Tumor necrosis factor ligand …: QIGHPSPPPEKKELRKVAHLTGKSNSRSMPLEWEDTYGIVLLSGVKYKKGGLVINETGLYFVYSKVYFRGQSCNNLPLSHKVYMRNSKYPQDLVMMEGKMMSYCTTGQMWARSSYLGAVFNLTSADHLYVNVSELSLVNFEESQTFFGLYKL | – | – | Jurkat cell viability, single agent ([3]; MTT at 24 hours): dose-responsive cytotoxicity; also recorded: only Jurkat cells were sensitive to FasL; OPM2 cell viability, single agent [4]: sensitive to TRAIL but not FasL; also recorded: only Jurkat cells were sensitive to FasL |
